{
  "source": "patent US20260364214A1",
  "about": "“MULTIVALENT FIBROBLAST ACTIVATION PROTEIN LIGANDS FOR TARGETED DELIVERY APPLICATIONS” (Philochem AG, priority 2022, published 2026)",
  "system": "SK-RC-52.hFAP tumors",
  "experiment": "Quantitative biodistribution in SK-RC-52.hFAP tumor bearing mice",
  "format": "in vivo, mouse (female athymic Balb/c AnNRj-Foxn1)",
  "conditions": "i.v. 250 nmol/kg, 50 MBq/kg",
  "description": "SK-RC-52.hFAP were grown to 80% confluence in RPMI-1640 with 10% fetal bovine serum (FBS) and 1% antibiotic-antimycotic and detached with Trypsin-EDTA (ethylenediaminetetraacetic acid) 0.05%. Tumor cells were resuspended in Hanks' Balanced Salt Solution medium. Aliquots of 5 million cells (100 μL of suspension) were injected subcutaneously in the right flank of female athymic Balb/c AnNRj-Foxn1 mice (6 to 8 wk of age).\nRadiolabeling of ESV6-DOTAGA, Bi-ESV6-DOTAGA, Tri-ESV6-DOTAGA, Tetra-ESV6-DOTAGA, Hexa-ESV6-DOTAGA, Octa-ESV6-DOTAGA and FAP-2286 with lutetium-177 (a therapeutic radionuclide) was performed with different specific activities for three different studies (biodistribution, therapy and dose optimization).\nPrior to the biodistribution study, precursors (100 nmol) were dissolved in 100 μL of milliQ water and diluted with 200 μL of sodium acetate (1 M in water, pH=4.5). 20 MBq of ^177Lu solution were added and the mixture was heated at 90 °C for 10 minutes, followed by dilution with […] of PBS to achieve final volume of 2 mL (20 doses of 100 μL each).\nESV6-DOTAGA, Bi-ESV6-DOTAGA, Tri-ESV6-DOTAGA, Tetra-ESV6-DOTAGA, Hexa-ESV6-DOTAGA, Octa-ESV6-DOTAGA and FAP-2286 were radiolabeled with ^177Lu as described above. Tumors were allowed to grow to an average volume of 300 mm^3. Mice were randomized and injected intravenously with radiolabeled preparations of ^177Lu-ESV6, ^177Lu-Bi-ESV6, ^177Lu-Tri-ESV6, Tetra-ESV6-DOTAGA, Hexa-ESV6-DOTAGA, Octa-ESV6-DOTAGA or ^177Lu-FAP-2286 (250 nmol/kg; 50 MBq/kg). Mice were euthanized at different time-points after the intravenous injection by CO2 asphyxiation. Tumors, organs, and blood were collected, weighted, and radioactivity was measured with a Packard Cobra Gamma Counter. Values are expressed as percent ID/g±SD [FIG. 4]. The % ID/g in the tumors was corrected considering the SK-RC-52.hFAP tumor growth rate.\nQuantitative in vivo biodistribution of ^177Lu-ESV6-DOTAGA, ^177Lu-Bi-ESV6-DOTAGA, ^177Lu-Tri-ESV6-DOTAGA, ^177Lu-FAP-2286, Tetra-ESV6-DOTAGA, Hexa-ESV6-DOTAGA and Octa-ESV6-DOTAGA at different time points after intravenous administration (250 nmol/kg, 50 MBq/kg) in mice bearing SK-RC-52.hFAP tumors, are shown in Tables 1 to 4 and 10 to 12. Data are reported as % ID/g±standard deviation.\nTumor-to-organ ratios of ^177Lu-ESV6-DOTAGA, ^177Lu-Bi-ESV6-DOTAGA, ^177Lu-Tri-ESV6-DOTAGA, ^177Lu-FAP-2286, Tetra-ESV6-DOTAGA, Hexa-ESV6-DOTAGA and Octa-ESV6-DOTAGA, at different time points after intravenous administration (250 nmol/kg, 50 MBq/kg) in mice bearing SK-RC-52.hFAP tumors, are shown in Tables 5 to 8 and 13 to 15. Avg.=average; Std.d=standard deviation.",
  "data": [
    {"smiles": "N#C[C@@H]1CC(F)(F)CN1C(=O)CNC(=O)c1ccnc2c(NC(=O)CCC(=O)NCCNC(=O)CCOCC(COCCC(=O)NCCNC(=O)CCC(=O)Nc3cccc4c(C(=O)NCC(=O)N5CC(F)(F)C[C@H]5C#N)ccnc34)(COCCC(=O)NCCNC(=O)CCC(=O)Nc3cccc4c(C(=O)NCC(=O)N5CC(F)(F)C[C@H]5C#N)ccnc34)NC(=O)CCOCC(COCCC(=O)NC(COCCC(=O)NCCNC(=O)CCC(=O)Nc3cccc4c(C(=O)NCC(=O)N5CC(F)(F)C[C@H]5C#N)ccnc34)(COCCC(=O)NCCNC(=O)CCC(=O)Nc3cccc4c(C(=O)NCC(=O)N5CC(F)(F)C[C@H]5C#N)ccnc34)COCCC(=O)NCCNC(=O)CCC(=O)Nc3cccc4c(C(=O)NCC(=O)N5CC(F)(F)C[C@H]5C#N)ccnc34)NC(=O)CCC(C(=O)O)N3CCN(CC(=O)[O-])CCN(CC(=O)[O-])CCN(CC(=O)[O-])CC3)cccc12.[177Lu+3]", "note": "(stereo partly drawn) [^177Lu-Hexa-ESV6-DOTAGA]", "values": [
      {"measurement": "Tumor to organs ratio, Blood", "setting": "6 h", "result": 7.84},
      {"measurement": "Injected dose per gram, Blood", "setting": "6 h post injection", "result": 0.36, "unit": "% ID/g"},
      {"measurement": "Tumor to organs ratio, Blood", "setting": "24 h", "result": 17.77},
      {"measurement": "Injected dose per gram, Blood", "setting": "24 h post injection", "result": 0.10, "unit": "% ID/g"},
      {"measurement": "Tumor to organs ratio, Blood", "setting": "96 h", "result": 85.06},
      {"measurement": "Injected dose per gram, Blood", "setting": "96 h post injection", "result": 0.02, "unit": "% ID/g"},
      {"measurement": "Tumor to organs ratio, Heart", "setting": "6 h", "result": 8.50},
      {"measurement": "Injected dose per gram, Heart", "setting": "6 h post injection", "result": 0.33, "unit": "% ID/g"},
      {"measurement": "Tumor to organs ratio, Heart", "setting": "24 h", "result": 7.90},
      {"measurement": "Injected dose per gram, Heart", "setting": "24 h post injection", "result": 0.23, "unit": "% ID/g"},
      {"measurement": "Tumor to organs ratio, Heart", "setting": "96 h", "result": 8.99},
      {"measurement": "Injected dose per gram, Heart", "setting": "96 h post injection", "result": 0.16, "unit": "% ID/g"},
      {"measurement": "Tumor to organs ratio, Intestine", "setting": "6 h", "result": 13.86},
      {"measurement": "Injected dose per gram, Intestine", "setting": "6 h post injection", "result": 0.24, "unit": "% ID/g"},
      {"measurement": "Tumor to organs ratio, Intestine", "setting": "24 h", "result": 20.76},
      {"measurement": "Injected dose per gram, Intestine", "setting": "24 h post injection", "result": 0.10, "unit": "% ID/g"},
      {"measurement": "Tumor to organs ratio, Intestine", "setting": "96 h", "result": 20.47},
      {"measurement": "Injected dose per gram, Intestine", "setting": "96 h post injection", "result": 0.07, "unit": "% ID/g"},
      {"measurement": "Tumor to organs ratio, Kidney", "setting": "6 h", "result": 5.24},
      {"measurement": "Injected dose per gram, Kidney", "setting": "6 h post injection", "result": 0.53, "unit": "% ID/g"},
      {"measurement": "Tumor to organs ratio, Kidney", "setting": "24 h", "result": 3.37},
      {"measurement": "Injected dose per gram, Kidney", "setting": "24 h post injection", "result": 0.57, "unit": "% ID/g"},
      {"measurement": "Tumor to organs ratio, Kidney", "setting": "96 h", "result": 0.99},
      {"measurement": "Injected dose per gram, Kidney", "setting": "96 h post injection", "result": 1.37, "unit": "% ID/g"},
      {"measurement": "Tumor to organs ratio, Liver", "setting": "6 h", "result": 0.04},
      {"measurement": "Injected dose per gram, Liver", "setting": "6 h post injection", "result": 62.54, "unit": "% ID/g"},
      {"measurement": "Tumor to organs ratio, Liver", "setting": "24 h", "result": 0.03},
      {"measurement": "Injected dose per gram, Liver", "setting": "24 h post injection", "result": 53.45, "unit": "% ID/g"},
      {"measurement": "Tumor to organs ratio, Liver", "setting": "96 h", "result": 0.03},
      {"measurement": "Injected dose per gram, Liver", "setting": "96 h post injection", "result": 49.80, "unit": "% ID/g"},
      {"measurement": "Tumor to organs ratio, Lung", "setting": "6 h", "result": 0.43},
      {"measurement": "Injected dose per gram, Lung", "setting": "6 h post injection", "result": 6.91, "unit": "% ID/g"},
      {"measurement": "Tumor to organs ratio, Lung", "setting": "24 h", "result": 0.34},
      {"measurement": "Injected dose per gram, Lung", "setting": "24 h post injection", "result": 5.33, "unit": "% ID/g"},
      {"measurement": "Tumor to organs ratio, Lung", "setting": "96 h", "result": 1.10},
      {"measurement": "Injected dose per gram, Lung", "setting": "96 h post injection", "result": 1.38, "unit": "% ID/g"},
      {"measurement": "Tumor to organs ratio, Muscle", "setting": "6 h", "result": 9.52},
      {"measurement": "Injected dose per gram, Muscle", "setting": "6 h post injection", "result": 0.66, "unit": "% ID/g"},
      {"measurement": "Tumor to organs ratio, Muscle", "setting": "24 h", "result": 13.70},
      {"measurement": "Injected dose per gram, Muscle", "setting": "24 h post injection", "result": 0.14, "unit": "% ID/g"},
      {"measurement": "Tumor to organs ratio, Muscle", "setting": "96 h", "result": 35.84},
      {"measurement": "Injected dose per gram, Muscle", "setting": "96 h post injection", "result": 0.05, "unit": "% ID/g"},
      {"measurement": "Tumor to organs ratio, Spleen", "setting": "6 h", "result": 0.07},
      {"measurement": "Injected dose per gram, Spleen", "setting": "6 h post injection", "result": 41.26, "unit": "% ID/g"},
      {"measurement": "Tumor to organs ratio, Spleen", "setting": "24 h", "result": 0.04},
      {"measurement": "Injected dose per gram, Spleen", "setting": "24 h post injection", "result": 47.44, "unit": "% ID/g"},
      {"measurement": "Tumor to organs ratio, Spleen", "setting": "96 h", "result": 0.04},
      {"measurement": "Injected dose per gram, Spleen", "setting": "96 h post injection", "result": 38.61, "unit": "% ID/g"},
      {"measurement": "Tumor to organs ratio, Tail", "setting": "6 h", "result": 4.76},
      {"measurement": "Injected dose per gram, Tail", "setting": "6 h post injection", "result": 0.70, "unit": "% ID/g"},
      {"measurement": "Tumor to organs ratio, Tail", "setting": "24 h", "result": 1.39},
      {"measurement": "Injected dose per gram, Tail", "setting": "24 h post injection", "result": 1.65, "unit": "% ID/g"},
      {"measurement": "Tumor to organs ratio, Tail", "setting": "96 h", "result": 2.03},
      {"measurement": "Injected dose per gram, Tail", "setting": "96 h post injection", "result": 1.02, "unit": "% ID/g"},
      {"measurement": "Injected dose per gram, Tumor", "setting": "6 h post injection", "result": 2.77, "unit": "% ID/g"},
      {"measurement": "Injected dose per gram, Tumor", "setting": "24 h post injection", "result": 1.80, "unit": "% ID/g"},
      {"measurement": "Injected dose per gram, Tumor", "setting": "96 h post injection", "result": 1.36, "unit": "% ID/g"}
    ]}
  ]
}
